Experimental findings from patent US5216001A, “Indole derivatives” (H. Lunbeck A/S, priority 1990, dated 1993) are described below.

The IC50 is the concentration at which inhibition is half-maximal.

T1 sequence (P61169 whole entry): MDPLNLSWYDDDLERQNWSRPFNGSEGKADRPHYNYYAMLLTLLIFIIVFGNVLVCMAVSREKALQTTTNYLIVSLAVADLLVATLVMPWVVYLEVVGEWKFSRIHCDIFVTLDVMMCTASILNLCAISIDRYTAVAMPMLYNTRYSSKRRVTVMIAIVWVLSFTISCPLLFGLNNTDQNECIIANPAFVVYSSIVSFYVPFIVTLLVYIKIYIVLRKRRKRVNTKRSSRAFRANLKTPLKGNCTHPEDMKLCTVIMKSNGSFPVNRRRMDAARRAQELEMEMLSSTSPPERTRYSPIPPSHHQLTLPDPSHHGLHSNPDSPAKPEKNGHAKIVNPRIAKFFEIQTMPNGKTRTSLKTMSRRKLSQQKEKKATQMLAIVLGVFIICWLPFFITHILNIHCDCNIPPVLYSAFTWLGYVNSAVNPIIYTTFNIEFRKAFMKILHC

The first experiment concerns the target T1, dopamine D-2 receptors (Rattus norvegicus, UniProt P61169).
T1 construct: striatal tissue is dissected and weighed; from tissue; host or cells: corpus striatum membranes of male Wistar rats
Nature of the experiment: inhibition of 3H-spiperone binding to dopamine D-2 receptors in rat corpus striatum in vitro.
Conditions: not given
The protocol: INHIBITION OF ^3 H-SPIPERONE BINDING TO DOPAMINE D-2 RECEPTORS IN RAT CORPUS STRIATUM IN VITRO
By this method the inhibition by drugs of the binding of ^3 H-spiperone (0.5 nM) to dopamine D-2 receptors in membranes from rat corpus striatum is determined in vitro. Method and results in Hyttel and Larsen, J. Neurochem, 44, 1615-1622, 1985).
Male Wistar (Mol:Wistar) rats (125-250 g) are sacrificed and striatal tissue is dissected and weighed. The tissue is homogenized (Ultra Turrax, 10 sec.) in 10 ml of ice-cold 50 mM K-phosphate buffer pH 7.4 (at 25° C.). The homogenate is centrifuged twice at 20,000 g for 10 min. at 4° C. with rehomogenization of the pellet in 10 ml ice-cold buffer. The final pellet is homogenized in 1300 vol (w/v) ice-cold buffer.
Incubation tubes kept on ice in triplicate receive 100 μl of drug solution in water (or water for total binding) and 4000 μl of tissue suspension (final tissue content corresponds to 3.08 mg original tissue). The binding experimental is initiated by addition of 100 μl of ^3 H-spiperone (final concentration 0.5 nM) and by placing the tubes in a 37° C. water bath. After incubation for 10 min. the samples are filtered under vacuum (0-50 mBar) through Whatman GF/F filters (25 mm). The tubes are rinsed with 5 ml ice-cold buffer which are then poured on the filters. Thereafter, the filters are washed with 2×5 ml of buffer. The filters are placed in counting vials and 4 ml of appropriate scintillation fluid (e.g. Picofluor ™15) are added. After shaking for 1 h and storage 2 hrs in the dark the content of radioactivity is determined by liquid scintillation counting. Specific binding is obtained by subtracting the nonspecific binding in the presence of 10 μM of 6,7-ADTN.
For determination of the inhibition of binding five concentrations of drugs covering 3 decades are used.
England, specific activity 15-25 Ci/mmol.
As for `Cc1ccc2c(C3=CCN(CCN4CCN(C(C)C)C4=O)CC3)cn(-c3ccc(F)cc3)c2c1` [Compound 2b, 1-(4-fluorophenyl)-6-methyl-3-[1-[2-[3-(2-propyl)-2-imidazolidinon-1-yl]ethyl]-1,2,3,6-tetrahydropyridin-4-yl]-1H-indole], the IC50 is 67 nM.

Staying with this experiment, now noted: 3H-spiperone 0.5 nM, rat corpus striatum membranes, in vitro; read-out: Binding IC50, 3H Spi.
Consider `CC(C)N1CCN(CCN2CCC(c3cn(-c4ccc(F)cc4)c4cc(S(C)(=O)=O)ccc34)CC2)C1=O` [Compound 4k, 1-(4-fluorophenyl)-6-methylsulfonyl-3-[1-[2-[3-(2-propyl)-2-imidazolidinon-1-yl]ethyl]-4-piperidyl]-1H-indole], for which the IC50 was 600 nM.

For a further experiment, the target named is T2, serotonin S2 (5-HT2) receptors (Rattus norvegicus, UniProt P14842).
T2 construct: cortical tissue is dissected and weighed; from tissue; host or cells: cerebral cortex membranes of male Wistar (Mol:Wist) rats
T2 sequence (P14842 whole entry): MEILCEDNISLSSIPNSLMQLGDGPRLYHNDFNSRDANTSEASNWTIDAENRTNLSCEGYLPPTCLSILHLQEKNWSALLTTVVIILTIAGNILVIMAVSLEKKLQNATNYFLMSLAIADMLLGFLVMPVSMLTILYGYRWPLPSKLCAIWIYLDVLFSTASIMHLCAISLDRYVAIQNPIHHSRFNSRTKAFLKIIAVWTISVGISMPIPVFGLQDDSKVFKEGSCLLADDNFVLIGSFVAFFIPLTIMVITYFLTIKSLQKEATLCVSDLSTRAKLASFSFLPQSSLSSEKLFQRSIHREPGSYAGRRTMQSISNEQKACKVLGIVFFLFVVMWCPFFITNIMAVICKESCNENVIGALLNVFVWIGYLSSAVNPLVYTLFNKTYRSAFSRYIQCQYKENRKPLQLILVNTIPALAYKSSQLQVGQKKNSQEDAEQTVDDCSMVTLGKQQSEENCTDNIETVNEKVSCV
Briefly: inhibition of 3H-ketanserin binding to serotonin S2 (5-HT2) receptors in rat cortex in vitro. To be noted: 3H-ketanserin 0.5 nM, rat cortex membranes, read-out: Binding IC50, 3H Ket. The protocol:
Method in Hyttel, Pharmacology & Toxicology, 61, 126-129. 1987.
Male Wistar (Mol:Wist) rats (125-250 g) are sacrifices and cortical tissue is dissected and weighed. The tissue is homogenized (Ultra Turrax, 10 sec.) in 10 ml of ice-cold 50 mM tris buffer pH 7.7 (at 25° C.). The centrifuge glassware used in this step has been rinsed by sonication for 10 min. in ethanol. The homogenate is centrifuged twice at 20,000 g for 10 min. at 4° C. with rehomogenization of the pellet in 10 ml ice-cold buffer. The final pellet is homogenized in 500 vol (w/v) ice-cold buffer.
Incubation tubes kept on ice in triplicate receive 100 μl of drug solution in water (or water for total binding) and 2000 μl of tissue suspension (final tissue content corresponds to 4 mg original tissue). […] After incubation for 30 min. the samples are filtered under vacuum (0-50 mBar) through Whatman GF/F filters (25 mm). The tubes are rinsed with 5 ml ice-cold buffer which are then poured on the filters. Thereafter, the filters are washed with 2×5 ml of buffer. The filters are placed in counting vials and 4 ml of appropriate scintillation fluid (e.g., Picofluor™15) are added. After shaking for 1 h and storage 2 hrs in the dark the content of radioactivity is determined by liquid scintillation counting. Specific binding is obtained by subtracting the nonspecific binding in the presence of 1 μM mianserin. For determination of the inhibition of binding five concentrations of drugs covering 3 decades are used.
The IC50 value is determined as the concentration at which the binding is 50% of the total binding in control samples minus the nonspecific binding in the presence of 1 μM mianserin.
As for `CC(C)N1CCN(CCN2CCC(c3cn(-c4ccc(F)cc4)c4cc(Cl)c(Cl)cc34)CC2)C1=O` [Compound 5e, 5,6-dichloro-1-(4-fluorophenyl)-3-[1-[2-[3-(2-propyl)-2-imidazolidinon-1-yl]ethyl]-4-piperidyl]-1H-indole], the IC50 worked out at 3.4 nM.

Take `O=C1NCCN1CCN1CCC(c2cn(-c3ccc(F)cc3)c3cc(Br)ccc23)CC1` [Compound 4h, 6-bromo-1-(4-fluorophenyl)-3-[1-[2-(2-imidazolidinon-1-yl)ethyl-]-4-piperidyl]-1H-indole]: the IC50 was found to be 1.8 nM.

On to `Cc1ccc2c(C3=CCN(CCN4CCN(C(C)C)C4=O)CC3)cn(-c3ccc(F)cc3)c2c1` [Compound 2b, 1-(4-fluorophenyl)-6-methyl-3-[1-[2-[3-(2-propyl)-2-imidazolidinon-1-yl]ethyl]-1,2,3,6-tetrahydropyridin-4-yl]-1H-indole], for which the IC50 is 1.9 nM.

Consider `CC(C)N1CCN(CCN2CCC(c3cn(-c4ccc(F)cc4)c4cc(S(C)(=O)=O)ccc34)CC2)C1=O` [Compound 4k, 1-(4-fluorophenyl)-6-methylsulfonyl-3-[1-[2-[3-(2-propyl)-2-imidazolidinon-1-yl]ethyl]-4-piperidyl]-1H-indole], for which the IC50 amounted to 9 nM. On the same count and under the same terms, the result for `CC(C)N(C)C(=O)NCCN1CCC(c2cn(-c3ccc(F)cc3)c3cc(Cl)ccc23)CC1` [Compound 9g, 6-chloro-1-(4-fluorophenyl)-3-[1-[2-[3-methyl-3-(2-propyl)-1-ureido]-1-ethyl]-4-piperidyl]-1H-indole] reads 6.2 nM; that for `CC(C)N1CCN(CCN2CCC(C3CN(c4ccc(F)cc4)c4cc(Cl)ccc43)CC2)C1=O` (stereo not shown) [Compound 21a, 6-chloro-1-(4-fluorophenyl)-3-[1-[2-[3-(2-propyl)-2-imidazolidinon-1-yl]ethyl]-4-piperidyl]-2,3-dihydro-1H-indole], 9.6 nM; that for `CN(C)C(=S)NCCN1CCC(c2cn(-c3ccc(F)cc3)c3cc(Cl)ccc23)CC1` [Compound 9f], 2.5 nM. Consider `CNC(=S)NCCN1CCC(c2cn(-c3ccc(F)cc3)c3cc(Cl)ccc23)CC1` [Compound 9c, 6-chloro-1-(4-fluorophenyl)-3-[1-[2-(3-methyl-1-thioureido)-1-ethyl]-4-piperidyl]-1H-indole], for which the IC50 came out at 12 nM. On the same count and under the same terms, the figure for `CN(C)C(=O)NCCN1CCC(c2cn(-c3ccc(F)cc3)c3cc(Cl)ccc23)CC1` [Compound 9l, 6-chloro-3-[1-[2-(3,3-dimethyl-1-ureido)-1-ethyl]-4-piperidyl]-1-(4-fluorophenyl)-1H-indole] is 1.3 nM; for `CCOC(=O)NCCN1CCC(c2cn(-c3ccc(F)cc3)c3cc(Cl)ccc23)CC1` [Compound 9k] it is 4 nM. On to `CC(C)N1CCN(CCN2CCC(c3cn(-c4ccc(F)cc4)c4cc5c(cc34)CCC5)CC2)C1=O` [Compound 5g, 1-(4-fluorophenyl)-3-[1-[2-[3-(2-propyl)-2-imidazolidinon-1-yl]ethyl]-4-piperidyl]-1,5,6,7-tetrahydrocyclopent[f]-1H-indole], for which the IC50 was 3.2 nM. As for `CNC(=O)N(C)CCN1CCC(c2cn(-c3ccc(F)cc3)c3cc(Cl)ccc23)CC1` [Compound 9h, 6-chloro-1-(4-fluorophenyl)-3-[1-[2-(1,3-dimethyl-1-ureido)-1-ethyl]-4-piperidyl]-1H-indole], the 50% inhibitory concentration (IC50) was found to be 1.6 nM. Still for that read-out and setting: the result for `CSc1ccc2c(C3CCN(CCN4CCN(C(C)C)C4=O)CC3)cn(-c3ccc(F)cc3)c2c1` [Compound 19a, 1-(4-fluorophenyl)-6-methylthio-3-[1-[2-[3-(2-propyl)-2-imidazolidinon-1-yl]ethyl]-4-piperidyl]-1H-indole] reads 3.2 nM. Still for that read-out and setting: the result for `O=C1NCCN1CCN1CCC(c2cn(-c3ccc(F)cc3)c3cc(C(F)(F)F)ccc23)CC1` [Compound 4d, 1-(4-fluorophenyl)-3-[1-[2-(2-imidazolidinon-1-yl)ethyl]-4-piperidyl]-6-trifluoromethyl-1H-indole] reads 1.7 nM. With `Cc1c(C2=CCN(CCN3CCNC3=O)CC2)c2ccccc2n1-c1ccc(F)cc1` [Compound 24b, 1-(4-fluoropheyl)-3-[1-[2-(2-imidazolidinon-1-yl)ethyl]-1,2,3,6tetrahydropyridin-4-yl]-2-methyl-1H-indole], the IC50 came to 1 nM. Same read-out and setting: the result for `O=C1NCCN1CCN1CCC(c2cn(-c3ccc(F)cc3)c3cc4c(cc23)CCC4)CC1` [Compound 5h, 1-(4-fluorophenyl)-3-[1-[2-(2-imidazolidinon-1-yl)ethyl]-4-piperidyl]-1,5,6,7-tetrahydrocyclopent[f]-1H-indole] reads 1.2 nM; that for `CC(C)c1ccc2c(C3CCN(CCN4CCNC4=O)CC3)cn(-c3ccc(F)cc3)c2c1` [Compound 5d, 1-(4-fluorophenyl)-6-(2-propyl)-3-[1-[2-(2-imidazolidinon-1-yl)ethyl]-4-piperidyl]-1H-indole], 18 nM; that for `CC(C)N1CCN(CCN2CCC(c3cn(-c4ccc(F)cc4)c4cc(Br)ccc34)CC2)C1=O` [Compound 5b, 6-bromo-1-(4-fluorophenyl)-3-[1-[2-[3-(2-propyl)-2-imidazolidinon-1-yl]ethyl]-4-piperidyl]-1H-indole], 2 nM.

As to `O=C1N(CCO)CCN1CCN1CCC(c2cn(-c3ccc(F)cc3)c3cc(Cl)ccc23)CC1` [Compound 18a, 6-chloro-1(4-fluorophenyl)-3-[1-[2-[3-(2-hydroxyethyl)-2-imidazolidinon-1-yl]e-thyl]-4-piperidyl]-1H-indole], the IC50 was determined as 2.5 nM. Still for that read-out and setting: the figure for `Fc1ccc(-n2cc(C3CCN(CCN4CCNC4=S)CC3)c3ccc(Cl)cc32)cc1` [Compound 12a, 6-chloro-1-(4-fluorophenyl)-3-[1-[2-(2-imidazolidinthion-1-yl)ethyl]-4-piperidyl]-1H-indole] is 6.2 nM; for `CC(C)N1CCN(CCN2CCC(c3cn(-c4ccccc4)c4cc(Cl)ccc34)CC2)C1=O` [Compound 15k, 6-chloro-1-phenyl-3-[1-[2-[3-(2-propyl)-2-imidazolidinon-1-yl]ethyl]-4-piperidyl]-1H-indole] it is 4.5 nM.

On to `CC(C)n1ccn(CCN2CCC(c3cn(-c4ccc(F)cc4)c4cc(Cl)ccc34)CC2)c1=O` [Compound 17a, 6-chloro-1-(4-fluorophenyl)-3-[1-[2-[3-(2-propyl)imidazol-2-on-1-yl]ethyl]-4-piperidyl]-1H-indole], for which the IC50 was 4.6 nM. `CCN(CCN1CCC(c2cn(-c3ccc(F)cc3)c3cc(Cl)ccc23)CC1)C(=O)N(C)C` [Compound 9e, 6-chloro-3-[1-[2-(3,3-dimethyl-1-ethyl-1-ureido)-1-ethyl]-4-piperidyl]-1-(4-fluorophenyl)-1H-indole]: the IC50 turned out to be 6.4 nM. Still for that read-out and setting: the result for `OCCN1CCC(c2cn(-c3ccc(F)cc3)c3cc(Cl)ccc23)CC1` [Compound 4f, 6-chloro-1-(4-fluorophenyl)-3-[1-(2-hydroxyethyl)-4-piperidyl]-1H-indole] reads 11 nM; that for `CC(C)NC(=O)N(C)CCN1CCC(c2cn(-c3ccc(F)cc3)c3cc(Cl)ccc23)CC1` [Compound 9i, 6-chloro-1-(4-fluorophenyl)-3-[1-[2-(1-methyl-3-(2-propyl)-1-ureido)-1-ethyl]-4-piperidyl]-1H-indole], 2.2 nM; that for `CC(=O)NCCN1CCC(c2cn(-c3ccc(F)cc3)c3cc(Cl)ccc23)CC1` [Compound 9j], 11 nM.
